The source of these data is patent publication US6762029B2, “Methods of identifying agents that modulate P2Y12 receptor activity” (Portola Pharmaceuticals, Inc., priority 1999, dated 2004).

For orientation: EC50 means the concentration needed to bring the measured effect to its halfway point. A word on the IC50: it is the midpoint of a concentration-inhibition curve.

The target of experiment [1] is T1, P2Y12 receptor (UniProt Q9H244).
T1 construct: EC50, potassium currents in oocytes; other: Xenopus oocytes with Kir3.1 and 3.4; currents normalized to 10 μM ADP; Hill; potency compared to ADP
Description: Two-electrode voltage-clamp of Xenopus oocytes expressing P2Y12 with Kir3.1 and 3.4: agonist-stimulated potassium currents. The conditions noted are these: FIG. 1C; for EC50: Xenopus oocytes with Kir3.1 and 3.4, currents normalized to 10 μM ADP, Hill fit. The experiment is classed as cell-based. As to the method: (§1) Defolliculated Xenopus laevis oocytes were injected with a positive 500 clone pool (10 ng), rP2Y12 (10 pg), hP2Y12 (50 pg), Kir3.1, Kir3.4, PTX and hm2 (1 ng each) cRNAs as indicated. Three to seven days after injection, two-electrode voltage-clamp recordings were performed using a Geneclamp 500 amplifier (Axon Instruments) and a Maclab A/D converter (Maclab). Membrane potentials were clamped at −70 mV while the recording chamber was perfused at a rate of 2 ml/min with a solution containing (in mM) 70 KCl, 20 NaCl, 3 MgCl2, 5 HEPES, pH 7.4, at room temperature. The KCl was replaced with NaCl to examine responses in zero potassium. Agonists and antagonists (Roche Molecular Biochemistry or Sigma) were diluted in the recording solution. Experiments using C1330-7 included 0.1% dimethylsulfoxide to enhance its solubility in the perfusate.
(§2) FIG. 1(A). Activation of potassium-dependent currents in Xenopus oocytes expressing P2Y12 with Kir3.1 and 3.4. ADP (10 μM) was applied (short bars) in the presence or absence (long bar) of extracellular potassium (70 mM) while recording membrane currents in the whole-cell voltage clamp configuration. […] (B) ADP-selective stimulation of potassium channel-dependent currents by P2Y12 occurs via a pertussis toxin-sensitive pathway. UDP, adenosine (A), ATP-α-S or ADP (10 μM each) were sequentially applied to oocytes expressing the rat or human receptor with or without Kir3.1, 3.4 and pertussis toxin (PTX). (C) The agonist profile of P2Y12 recapitulates that observed for the Gi-coupled platelet ADP receptor. Concentration-response curves for ADP and 2MeSADP are presented. Membrane currents were normalized in each oocyte to a response obtained with 10 μM ADP. Each point represents the mean values (+/−s.d.) from five independent oocytes. The Hill equation was used to fit the response data.
A general note: Two-electrode voltage clamp is typically applied to oocytes expressing channels or transporters.

The target in experiment [2] is T2, hP2Y12 (Homo sapiens, UniProt Q9H244).
T2 construct: expressed in transfected cells; host or cells: Xenopus laevis oocytes injected with hP2Y12 cRNA (50 pg) plus Kir3.1 and Kir3.4 cRNAs
T2 sequence (Q9H244 whole entry): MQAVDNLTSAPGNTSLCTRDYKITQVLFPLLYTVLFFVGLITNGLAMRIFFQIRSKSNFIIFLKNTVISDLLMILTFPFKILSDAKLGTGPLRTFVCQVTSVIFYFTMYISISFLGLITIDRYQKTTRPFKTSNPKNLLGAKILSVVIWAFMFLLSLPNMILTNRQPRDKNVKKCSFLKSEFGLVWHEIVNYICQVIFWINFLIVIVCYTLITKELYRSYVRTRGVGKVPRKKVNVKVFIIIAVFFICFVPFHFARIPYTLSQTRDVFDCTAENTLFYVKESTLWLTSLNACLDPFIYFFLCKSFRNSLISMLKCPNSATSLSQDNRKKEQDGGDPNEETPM
Description: [3H]2MeSADP binding to membranes of COS7 cells transiently transfected with hP2Y12 (rapid filtration). The conditions noted are these: 4 C, 30 minutes. As to the method: hP2Y12 cDNA was transiently transfected into cos7 cells and crude membranes were prepared using standard procedures. Binding of 1 nM [^3H]2MeSADP at various membrane protein concentrations and in the absence and presence of various inhibitors was determined at 4 C. for 30 minutes in a rapid filtration assay (triplicates). Non-specific binding was determined with 10 uM 2MeSADP and subtracted from all data. Each experiment included membranes from untransfected cells.

Experiment [3] deals with T2, hP2Y12. Description: Forskolin-stimulated cAMP accumulation in CHO cells stably expressing hP2Y12. Format: cell-based. Here is the method:
Chinese Hamster Ovary (CHO) cells or rat 2-9 fibroblasts, which are null for Gi-linked purinergic receptors, were transfected with hP2Y12 or rP2Y12 cDNA's, respectively using FuGene reagent (Roche), and cells were cultured in the presence of G418 for 2 weeks to select for stable transfectants. For cAMP assays, stably transfected CHO cells expressing the hP2Y12 plasmid were plated in 12-well dishes. Forty-eight hours later media was removed from the cells and replaced with serum-free media containing IBMX (0.25 mM final) and incubated at 37° C. for 5 minutes. Cells were incubated for an additional 5 min with 10 μM forskolin, as well as the indicated agonists and antagonists. Pertussis toxin treatment (30 ng/ml) occurred for 20 hrs at 37° C. prior to assay. Cyclic AMP levels were determined from aliquots of cell extracts in a radioimmunoassay (Amersham Biotrak cAMP ^125I assay system).
FIG. 3(A). Receptor coupling to adenylyl cyclase was assessed as ADP-mediated (0.1-10 μM) inhibition of forskolin-stimulated (10 μM) cAMP accumulation (CON=control, normalized to 100%). (B) The effect of the specific antagonists 2MeSAMP (2-MES)(50 μM) and C1330-7 (50 μM) on repression of ADP-mediated (1 μM) forskolin-stimulated cAMP levels. (C) Effect of pertussis toxin (PTX) pretreatment on the inhibition by 10 μM ADP of forskolin-stimulated cAMP levels. Results are the mean+/−s.d. of three representative experiments performed in triplicate.

Experiment [4] has as its target T2, hP2Y12. Description: Two-electrode voltage-clamp of Xenopus oocytes expressing hP2Y12 with Kir3.1 and 3.4: inhibition of ADP-stimulated potassium currents. Format: cell-based. As to the method:
as §1
FIG. 2(A). […] The dot (.) indicates the start of a 15 sec application of ADP, while bars denote co-application with the antagonist. (B) 2MeSAMP and C1330-7 inhibition curves. Current responses were normalized to that elicited by ADP (500 nM) alone in each oocyte and plotted as the mean+/−s.d. Curves were fitted to the data using the Hill equation (n=5 independent oocytes for each point). (C) Selective ablation of P2Y12 but not m2 muscarinic receptor signaling by the thiol reagent pCMBS. ADP (10 μM), carbachol (1 μM), and pCMBS (1 mM) were applied sequentially to an oocyte expressing both receptors concurrently with Kir3.1 and 3.4. Bars indicate periods of drug application (10 sec).

Another experiment concerns the target T3, rat P2Y12 (Rattus norvegicus, UniProt Q9EPX4).
T3 construct: expressed in transfected cells; host or cells: Xenopus laevis oocytes injected with rP2Y12 cRNA (10 pg) plus Kir3.1 and Kir3.4 cRNAs
Description: Two-electrode voltage-clamp of Xenopus oocytes expressing rat P2Y12: inhibition of ADP-evoked signal. The experiment is classed as cell-based. Here is the method: as §1

Experiment [5] has as its system P2Y12 receptor. Description: Two-electrode voltage-clamp of Xenopus oocytes expressing P2Y12 with Kir3.1 and 3.4: agonist-stimulated potassium currents. The experiment is classed as cell-based. The conditions noted are these: 10 μM each, FIG. 1B. As to the method:
as §1, §2

For another experiment, the target named is T4, m2 muscarinic receptor (Homo sapiens, UniProt P08172).
T4 construct: expressed in transfected cells; host or cells: Xenopus laevis oocytes injected with hm2 cRNA (1 ng) together with hP2Y12, Kir3.1 and Kir3.4
T4 sequence (P08172 1-466): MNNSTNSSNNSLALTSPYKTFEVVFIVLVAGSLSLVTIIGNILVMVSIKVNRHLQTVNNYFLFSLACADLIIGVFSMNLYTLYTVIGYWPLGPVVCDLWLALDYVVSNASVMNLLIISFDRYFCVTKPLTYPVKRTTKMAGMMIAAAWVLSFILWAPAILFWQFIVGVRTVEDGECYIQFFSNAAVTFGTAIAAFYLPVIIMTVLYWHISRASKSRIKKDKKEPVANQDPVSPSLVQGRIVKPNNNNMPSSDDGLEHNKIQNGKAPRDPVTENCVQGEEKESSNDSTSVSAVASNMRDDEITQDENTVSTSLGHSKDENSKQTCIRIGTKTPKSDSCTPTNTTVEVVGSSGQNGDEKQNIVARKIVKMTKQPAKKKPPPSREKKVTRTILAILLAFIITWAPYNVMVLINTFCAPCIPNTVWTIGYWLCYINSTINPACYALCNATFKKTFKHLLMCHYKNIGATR
Description: Carbachol-activated Kir3.1/3.4 currents via m2 muscarinic receptor in the same oocytes. The experiment is classed as cell-based. To be noted: 1 mM, carbachol 1 μM, FIG. 2C. Here is the method: as §1
FIG. 2(A). […] The dot (.) indicates the start of a 15 sec application of ADP, while bars denote co-application with the antagonist. (B) 2MeSAMP and C1330-7 inhibition curves. Current responses were normalized to that elicited by ADP (500 nM) alone in each oocyte and plotted as the mean+/−s.d. Curves were fitted to the data using the Hill equation (n=5 independent oocytes for each point). (C) Selective ablation of P2Y12 but not m2 muscarinic receptor signaling by the thiol reagent pCMBS. […]

T3 sequence (Q9EPX4 whole entry): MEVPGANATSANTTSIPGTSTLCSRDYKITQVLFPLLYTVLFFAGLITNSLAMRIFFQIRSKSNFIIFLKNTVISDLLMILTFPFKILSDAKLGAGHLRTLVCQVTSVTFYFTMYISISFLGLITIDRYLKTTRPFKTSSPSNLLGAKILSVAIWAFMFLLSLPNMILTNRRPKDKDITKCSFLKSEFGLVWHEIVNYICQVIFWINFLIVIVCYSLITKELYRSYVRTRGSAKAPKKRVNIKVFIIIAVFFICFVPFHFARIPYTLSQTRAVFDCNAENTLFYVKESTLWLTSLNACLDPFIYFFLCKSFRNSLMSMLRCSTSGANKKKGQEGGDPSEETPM

`CSc1nc(N)c2ncn([C@@H]3O[C@H](COP(=O)(O)OP(=O)(O)O)[C@@H](O)[C@H]3O)c2n1` [2MeSADP] registered an EC50 on P2Y12 receptor [1] of 0.9 nM. Besides, the “potency compared to ADP” value on P2Y12 receptor [1] (ratio of EC50s) is given as 2 orders of magnitude.

As for `CSc1nc(N)c2ncn([C@@H]3O[C@H](COP(=O)(O)O)[C@@H](O)[C@H]3O)c2n1` [2MeSAMP], at hP2Y12 [2] (50 μM), the “competition of 1 nM [3H]2MeSADP binding to membranes from transfected cells” value is recorded as “essentially to the level of untransfected cells”. In addition, the “effect on repression of cAMP levels by 1 μM ADP” value at hP2Y12 [3] (antagonist 50 μM, 10 μM forskolin, FIG. 3B) is “reversed”. Further, the “effect on forskolin-stimulated cAMP levels in the absence of agonist” value at hP2Y12 [3] (no agonist) is “Neither of these antagonists had effects”. On hP2Y12 [4] (antagonist 10 μM, FIG. 2A), the “block of ADP (1 μM) responses” value is reported as “reversible block”. Besides, the IC50 at hP2Y12 [4] (oocytes expressing rat or human P2Y12 (FIG. 2B: hP2Y12), ADP 500 nM, read-out: IC50, block of ADP-induced K+ currents) was 1400 nM.

`Nc1ncnc2c1ncn2[C@@H]1O[C@H](COP(=O)(O)O)[C@@H](OP(=O)(O)O)[C@H]1O` [A3P5P]: the “inhibitory effect on the signal evoked by ADP” value against rat P2Y12 is reported as “no inhibitory effect”; against hP2Y12 [4] (human P2Y12, FIG. 2A) it was “no inhibitory effect”. For the same molecule, the “competition of 1 nM [3H]2MeSADP binding to membranes from transfected cells” value at hP2Y12 [2] (300 μM) is “only little effect”.

With `Nc1ncnc2c1ncn2[C@@H]1O[C@H](COP(=O)(O)OP(=O)(O)O)[C@@H](O)[C@H]1O` [ADP, adenosine 5′-diphosphate], the EC50 at P2Y12 receptor [1] was found to be 300 nM. Further, the “maximum reduction of forskolin-stimulated cAMP levels” value at hP2Y12 [3] (10 μM ADP, 10 μM forskolin, FIG. 3A) is reported as 47%.

As for `Nc1ncnc2c1ncn2[C@@H]1O[C@H](COP(O)(=S)OP(=O)(O)OP(=O)(O)O)[C@@H](O)[C@H]1O` (stereo partly shown) [ATP-αS], the “agonist effect on potassium currents” value in the experiment with P2Y12 receptor [5] was “weak agonist”.

On to `O=S(=O)(O)c1cc[c]([Hg][Cl])cc1` [pCMBS, p-chloromercuriphenylsulfonic acid], for which the “effect on activation of the signaling pathway by m2 muscarinic receptors” value on m2 muscarinic receptor is recorded as “unaffected”. Also, on hP2Y12 [4] (brief exposure, 1 mM, ADP 10 μM, FIG. 2C), the “effect on ADP-evoked current responses” value was “eliminated”.

Take pertussis toxin: the “effect of pretreatment on ADP effects on forskolin-stimulated cAMP” value with hP2Y12 [3] (30 ng/ml for 20 hrs, 10 μM ADP, FIG. 3C) is given as “abolished”.
